Experimental data reported in CN117771387A, “糖响应性复合物及其制备方法和应用” (priority 2022, dated 2024).

How the values were obtained:
[1] = test system: AKT信号磷酸化; assay: In vitro activity of Glu-insulin: AKT phosphorylation in HepG2 cells (western blot); assay type: cell-based; settings: 10 min, 0-100nM
[2] = test system: 1型糖尿病小鼠; assay: Blood glucose lowering by Glu-insulin in STZ-induced type 1 diabetic mice; assay type: in vivo, C57BL/6小鼠; settings: s.c., insulin-equivalent dose 1.5mg/kg

For “Glu-insulin: Recombinant human insulin modified with gluconic acid at A1 (N-terminus of the α chain) [葡萄糖酸基胰岛素]”, the “Activity on AKT phosphorylation compared with recombinant human insulin” value [1] was “显示出与未修饰的重组人胰岛素相似的活性” and the “Blood glucose lowering effect compared with recombinant human insulin” value [2] was “仍有与重组人胰岛素类似的降糖效果”.
